The values that follow are results of earlier work, collected in article PMC3780389 (Experimental neurology, 2012).

Data set [1] has as its system APP23 transgenic mouse model of AD. The note with it: ref Qing, et al., 2008.
The next data set concerns 3x-Tg AD mice. The note with it: ref Green, et al., 2008, Hempen and Brion, 1996.
The next data set concerns hAPP Tg AD mice. The note with it: chronic administration, ref Ricobaraza, et al., 2011.

Regarding `CCCC(CCC)C(=O)O` [Valproic acid], the Aβ plaque number entry in data set [1] was “significantly reduce Aβ plaque number”. With `NC(=O)c1cccnc1` [nicotinamide], in the data set with 3x-Tg AD mice, the Thr231-phosphotau entry was “selectively decreases” and the “level of acetylated α-tubulin” value is given as “increases”. In the case of “sodium 4-phenylbutyrate [sodium 4-phenylbutyrate (4-PBA)]”, in the data set with hAPP Tg AD mice, the Aβ levels result is “decreased Aβ levels”.
